In ChEMBL document CHEMBL4673334, “In Vivo Biological Evaluation of a Synthetic Royleanone Derivative as a Promising Fast-Acting Trypanocidal Agent by Inducing Mitochondrial-Dependent Necrosis” (J Nat Prod, 2020):
Values belong to the compound of their own block, whether it stands above or below them. The source made the active and inactive calls. The calls are words filed in the database; no cut-off is given here.

What was measured:
Vero = assay: Cytotoxicity against African green monkey Vero cells assessed as reduction in cell viability after 48 hrs by resazurin dye based assay; conditions: Chlorocebus sabaeus
Trypanosoma cruzi [1] = assay: Antitrypanosomal activity against Trypanosoma cruzi TINF/CH/1956/Tulahuen (DTU VI) epimastigote form assessed as parasite growth inhibition incubated for 48 hrs by resazurin dye based assay; format: functional, organism-based
Trypanosoma cruzi [2] = assay: Antitrypanosomal activity against Trypanosoma cruzi IRHOD/CO/2008/SN3 (DTU I) epimastigote form assessed as parasite growth inhibition incubated for 48 hrs by resazurin dye based assay; format: functional, organism-based
Trypanosoma cruzi [3] = assay: Antitrypanosomal activity against Trypanosoma cruzi MHOM/Pe/2011/Arequipa(DTU V) epimastigote form assessed as parasite growth inhibition incubated for 48 hrs by resazurin dye based assay; format: functional, organism-based
Trypanosoma cruzi [4] = assay: Inhibition of nucleic acid level in Trypanosoma cruzi MHOM/Pe/2011/Arequipa(DTU V) epimastigote form at IC25 concentration after 72 hrs by Rho (FITC-A) staining based flow cytometric analysis; format: functional
Trypanosoma cruzi [5] = assay: Inhibition of mitochondrial membrane potential in Trypanosoma cruzi MHOM/Pe/2011/Arequipa(DTU V) epimastigote form at IC25 concentration after 72 hrs by Rho (FITC-A) staining based flow cytometric analysis; format: functional
[6] = Toxicity in BALB/c mouse infected with Trypanosomal Trypanosoma cruzi MHOM/Pe/2011/Arequipa(DTU V) assessed as reduction in weight at 20 mg/kg, po administered for 5 days starting at 100 days post infection and measured up to 145 days post infection; format: organism-based; conditions: in vivo, 120 h, time 5 day
[7] = Toxicity in BALB/c mouse infected with Trypanosomal Trypanosoma cruzi MHOM/Pe/2011/Arequipa(DTU V) assessed as reduction in weight at 20 mg/kg, po administered for 5 days starting at 9 days post infection and measured up to 145 days post infection; format: organism-based; conditions: in vivo, 120 h, time 5 day
[8] = Toxicity in BALB/c mouse infected with Trypanosomal Trypanosoma cruzi MHOM/Pe/2011/Arequipa(DTU V) assessed as reduction in survival at 20 mg/kg, po administered for 5 days starting at 100 days post infection and measured up to 145 days post infection; format: organism-based; conditions: in vivo, 120 h, time 5 day
[9] = Toxicity in BALB/c mouse infected with Trypanosomal Trypanosoma cruzi MHOM/Pe/2011/Arequipa(DTU V) assessed as reduction in survival at 20 mg/kg, po administered for 5 days starting at 9 days post infection and measured up to 145 days post infection; format: organism-based; conditions: in vivo, 120 h, time 5 day
[10] = Toxicity in BALB/c mouse infected with Trypanosomal Trypanosoma cruzi MHOM/Pe/2011/Arequipa(DTU V) assessed as effect on ALP level at 20 mg/kg, po administered for 5 days starting at 100 days post infection and measured after 2 days post treatment; format: organism-based; conditions: in vivo, 120 h, time 5 day
[11] = Toxicity in BALB/c mouse infected with Trypanosomal Trypanosoma cruzi MHOM/Pe/2011/Arequipa(DTU V) assessed as effect on total bilirubin level at 20 mg/kg, po administered for 5 days starting at 100 days post infection and measured after 2 days post treatment; format: organism-based; conditions: in vivo, 120 h, time 5 day
[12] = Toxicity in BALB/c mouse infected with Trypanosomal Trypanosoma cruzi MHOM/Pe/2011/Arequipa(DTU V) assessed as effect on ALT/GPT level at 20 mg/kg, po administered for 5 days starting at 100 days post infection and measured after 2 days post treatment; format: organism-based; conditions: in vivo, 120 h, time 5 day
[13] = Toxicity in BALB/c mouse infected with Trypanosomal Trypanosoma cruzi MHOM/Pe/2011/Arequipa(DTU V) assessed as effect on […] level at 20 mg/kg, po administered for 5 days starting at 100 days post infection and measured after 2 days post treatment; format: organism-based; conditions: in vivo, 120 h, time 5 day
[14] = Toxicity in BALB/c mouse infected with Trypanosomal Trypanosoma cruzi MHOM/Pe/2011/Arequipa(DTU V) assessed as effect on LDH level at 20 mg/kg, po administered for 5 days starting at 100 days post infection and measured after 2 days post treatment; format: organism-based; conditions: in vivo, 120 h, time 5 day
[15] = Toxicity in BALB/c mouse infected with Trypanosomal Trypanosoma cruzi MHOM/Pe/2011/Arequipa(DTU V) assessed as effect on CK-MB level at 20 mg/kg, po administered for 5 days starting at 100 days post infection and measured after 2 days post treatment; format: organism-based; conditions: in vivo, 120 h, time 5 day
[16] = Toxicity in BALB/c mouse infected with Trypanosomal Trypanosoma cruzi MHOM/Pe/2011/Arequipa(DTU V) assessed as effect on uric acid level at 20 mg/kg, po administered for 5 days starting at 100 days post infection and measured after 2 days post treatment; format: organism-based; conditions: in vivo, 120 h, time 5 day
[17] = Toxicity in BALB/c mouse infected with Trypanosomal Trypanosoma cruzi MHOM/Pe/2011/Arequipa(DTU V) assessed as effect on urea level at 20 mg/kg, po administered for 5 days starting at 100 days post infection and measured after 2 days post treatment; format: organism-based; conditions: in vivo, 120 h, time 5 day
[18] = Toxicity in BALB/c mouse infected with Trypanosomal Trypanosoma cruzi MHOM/Pe/2011/Arequipa(DTU V) assessed as effect on ALP level at 20 mg/kg, po administered for 5 days starting at 9 days post infection and measured after 2 days post treatment; format: organism-based; conditions: in vivo, 120 h, time 5 day
[19] = Toxicity in BALB/c mouse infected with Trypanosomal Trypanosoma cruzi MHOM/Pe/2011/Arequipa(DTU V) assessed as effect on total bilirubin level at 20 mg/kg, po administered for 5 days starting at 9 days post infection and measured after 2 days post treatment; format: organism-based; conditions: in vivo, 120 h, time 5 day
[20] = Toxicity in BALB/c mouse infected with Trypanosomal Trypanosoma cruzi MHOM/Pe/2011/Arequipa(DTU V) assessed as effect on ALT/GPT level at 20 mg/kg, po administered for 5 days starting at 9 days post infection and measured after 2 days post treatment; format: organism-based; conditions: in vivo, 120 h, time 5 day
[21] = Toxicity in BALB/c mouse infected with Trypanosomal Trypanosoma cruzi MHOM/Pe/2011/Arequipa(DTU V) assessed as effect on AST/GOT level at 20 mg/kg, po administered for 5 days starting at 9 days post infection and measured after 2 days post treatment; format: organism-based; conditions: in vivo, 120 h, time 5 day
[22] = Toxicity in BALB/c mouse infected with Trypanosomal Trypanosoma cruzi MHOM/Pe/2011/Arequipa(DTU V) assessed as effect on LDH level at 20 mg/kg, po administered for 5 days starting at 9 days post infection and measured after 2 days post treatment; format: organism-based; conditions: in vivo, 120 h, time 5 day
[23] = Toxicity in BALB/c mouse infected with Trypanosomal Trypanosoma cruzi MHOM/Pe/2011/Arequipa(DTU V) assessed as effect on CK-MB level at 20 mg/kg, po administered for 5 days starting at 9 days post infection and measured after 2 days post treatment; format: organism-based; conditions: in vivo, 120 h, time 5 day
[24] = Toxicity in BALB/c mouse infected with Trypanosomal Trypanosoma cruzi MHOM/Pe/2011/Arequipa(DTU V) assessed as effect on uric acid level at 20 mg/kg, po administered for 5 days starting at 9 days post infection and measured after 2 days post treatment; format: organism-based; conditions: in vivo, 120 h, time 5 day
[25] = Toxicity in BALB/c mouse infected with Trypanosomal Trypanosoma cruzi MHOM/Pe/2011/Arequipa(DTU V) assessed as effect on urea level at 20 mg/kg, po administered for 5 days starting at 9 days post infection and measured after 2 days post treatment; format: organism-based; conditions: in vivo, 120 h, time 5 day
Trypanosoma cruzi [26] = assay: (§1) Antitrypanosomal activity against Trypanosoma cruzi MHOM/Pe/2011/Arequipa(DTU V) amastigote form infected in BALB/c mouse assessed as parasite free organ tissue ratio at 20 mg/kg, po administered for 5 days starting at 100 days post infection and measured up to 145 days post infection by PCR analysis relative to control; format: functional; conditions: time 5 day
Trypanosoma cruzi [27] = assay: as §1, with “9” for “100”; format: functional; conditions: time 5 day
Trypanosoma cruzi [28] = assay: Antitrypanosomal activity against Trypanosoma cruzi MHOM/Pe/2011/Arequipa(DTU V) amastigote form infected in BALB/c mouse assessed as reactivation parasitaemia at 20 mg/kg, po administered for 5 days starting at 100 days post infection and measured up to 145 days post infection relative to control; format: functional; conditions: time 5 day
Trypanosoma cruzi [29] = assay: Antitrypanosomal activity against Trypanosoma cruzi MHOM/Pe/2011/Arequipa(DTU V) amastigote form infected in BALB/c mouse assessed as reactivation parasitaemia at 20 mg/kg, po administered for 5 days starting at 9 days post infection and measured up to 145 days post infection relative to control; format: functional; conditions: time 5 day
Trypanosoma cruzi [30] = assay: Antitrypanosomal activity against Trypanosoma cruzi MHOM/Pe/2011/Arequipa(DTU V) amastigote form infected in BALB/c mouse assessed as reduction in parasitaemia at 20 mg/kg, po for 5 days and measured after 55 days post infection; format: functional, organism-based; conditions: time 5.0 day
Trypanosoma cruzi [31] = assay: Antitrypanosomal activity against Trypanosoma cruzi MHOM/Pe/2011/Arequipa(DTU V) amastigote form infected in Vero cells assessed as parasite growth inhibition at 50 uM incubated for 72 hrs by Giemsa-staining based assay relative to control; format: functional

SMILES: CC(C)c1cc2c(cc1O)[C@@]1(C)CCC[C@@](C)(C=O)[C@@H]1CC2 [18-OXOFERRUGINOL]
IC50 (Vero): 106 µM
IC50 (Trypanosoma cruzi [1]): 48.7 µM
IC50 (Trypanosoma cruzi [2]): 63 µM
IC50 (Trypanosoma cruzi [3]): 59.5 µM

IC50 (Trypanosoma cruzi [1]): 19.2 µM
IC50 (Trypanosoma cruzi [2]): 13.5 µM
IC50 (Trypanosoma cruzi [3]): 19 µM
SMILES: CC(C)C1=CC(=O)C2=C(C=C[C@H]3C(C)(C)CCC[C@]23C)C1=O
IC50 (Vero): 26.1 µM

SMILES: CC(C)c1cc2c(cc1O)[C@@]1(C)CCC[C@@]3(C)CO[C@@H](C2=O)[C@@H]31
IC50 (Vero): 952 µM
IC50 (Trypanosoma cruzi [1]): 62.8 µM
IC50 (Trypanosoma cruzi [2]): 60.8 µM
IC50 (Trypanosoma cruzi [3]): 51 µM

SMILES: CC(C)c1cc2c(cc1O)[C@@]1(C)CCCC(C)(C)[C@@]1(O)OC2=O
IC50 (Vero): 480 µM
IC50 (Trypanosoma cruzi [1]): 72.8 µM
IC50 (Trypanosoma cruzi [2]): 91.2 µM
IC50 (Trypanosoma cruzi [3]): 40.5 µM

SMILES: O=C(Cn1ccnc1[N+](=O)[O-])NCc1ccccc1 [BENZNIDAZOLE]
inhibition (Trypanosoma cruzi [4]): 22.4%
inhibition (Trypanosoma cruzi [5]): 35.4%
Activity [6]: Non-Toxic
Activity [7]: Non-Toxic
Activity [8]: Non-Toxic
Activity [9]: Non-Toxic
Activity [10]: Non-Toxic
Activity [11]: Non-Toxic
Activity [12]: Non-Toxic
Activity [13]: Non-Toxic
Activity [14]: Non-Toxic
Activity [15]: Non-Toxic
Activity [16]: Non-Toxic
Activity [17]: Non-Toxic
Activity [18]: Non-Toxic
Activity [19]: Non-Toxic
Activity [20]: Non-Toxic
Activity [21]: Non-Toxic
Activity [22]: Non-Toxic
Activity [23]: Non-Toxic
Activity [24]: Non-Toxic
Activity [25]: Non-Toxic
Activity (Trypanosoma cruzi [26]): 42.9%
Activity (Trypanosoma cruzi [27]): 28.5%
Activity (Trypanosoma cruzi [28]): 68.3%
Activity (Trypanosoma cruzi [29]): 81.5%
Activity (Trypanosoma cruzi [30]): Active
inhibition at 50 µM (Trypanosoma cruzi [31]): 100%
IC50 (Vero): 80.4 µM

SMILES: COC(=O)[C@]1(C)CCC[C@]2(C)c3ccc(C(C)C)c(O)c3CC[C@@H]12
IC50 (Vero): 102 µM
IC50 (Trypanosoma cruzi [1]): 71.2 µM
IC50 (Trypanosoma cruzi [2]): 103 µM
IC50 (Trypanosoma cruzi [3]): 75 µM

SMILES: CC(C)c1cc2c(cc1O)[C@@]1(C)CCC[C@@]3(C)CO[C@@H]([C@@H]2O)[C@@H]31
IC50 (Vero): 763 µM
IC50 (Trypanosoma cruzi [1]): 34.6 µM
IC50 (Trypanosoma cruzi [2]): 36.7 µM
IC50 (Trypanosoma cruzi [3]): 31.1 µM

IC50 (Trypanosoma cruzi [1]): 95.3 µM
IC50 (Trypanosoma cruzi [2]): 110 µM
IC50 (Trypanosoma cruzi [3]): 75.9 µM
SMILES: CC(C)C1=CC2=C[C@@H]3OC(=O)[C@]4(C)CCC=C(C2=C(O)C1=O)[C@]34C
IC50 (Vero): 222 µM
